Reference: patent US11186572B2, “Bacterial glutaminyl cyclases and inhibitors thereof for use in the treatment of periodontitis” (Fraunhofer-Gesellschaft zur Forderung der Angewandten …, priority 2016, dated 2021)
Entries after “also recorded” stand apart in the source; their conditions may differ.

Each compound was assayed on bacterial QC (PgQC, PiQC, TfQC) (assay: Inhibition of bacterial QC by metal chelators (fluorometric activity assay)). Conditions: 250 μM H-Gln-AMC, increasing chelator concentrations, approx. 5 nM bacQC, 30° C.; all three bacterial QC (FIG. 7).
Type: biochemical, P. gingivalis, P. intermedia, T. forsythia
Method: The fluorometrically activity assay was carried out as described above, except the presence of 1% (v/v) DMSO in the case of 1,10-phenanthroline or dipicolinic acid. Finally the residual bacQC activity was determined at steady state whereas bacQC without Chelators and +/−1% DMSO served as positive control.
The reaction was initiated by adding approximately 5 nM bacQC. Black bars indicate residual PgQC activity, striped bars represent residual PiQC activity, and white bars display residual TfQC activity. All determinations were carried out at 30° C. as described above.
`O=C(O)CN(CCN(CC(=O)O)CC(=O)O)CC(=O)O` [EDTA] was tested, and the “inhibitory effect on bacQC activity (residual activity)” value was “does not influence bacQC activity”. `O=C(O)c1cccc(C(=O)O)n1` [dipicolinic acid] was tested, and the “inhibitory effect on bacQC activity (residual activity)” value was “strong inhibitory activity”. In the case of `c1cnc2c(c1)ccc1cccnc12` [phenanthroline, 1,10-phenanthroline], the “inhibitory effect on bacQC activity (residual activity)” value is reported as “strong inhibitory activity; also recorded: inhibited QC activity already at low mM range”.
